Data taken from ChEMBL document CHEMBL1201862, “PubChem BioAssay data set” (2004).
The source made the active and inactive calls.

Assays:
[1] = biological target: 72 kDa type IV collagenase (Homo sapiens, UniProt P08253); assay: Dose Response validation of uHTS RPN11 inhibitor hits using a MMP-2 Fluorescence assay.; format: functional
[2] = CFTR ΔF508 corrector activity in bronchial cells, dose response, human bronchial epithelial cells, plate reader, cherry-pick, two tests (AID 743267); format: functional, cell-based
[3] = biological target: 26S proteasome non-ATPase regulatory subunit 14 (Homo sapiens, UniProt O00487); assay: inhibition of proteasome subunit RPN11 – biochemical, fluorescence polarization, uHTS hits, confirmation (AID 602368); format: functional
Prothrombin = Prothrombin (Bos taurus, UniProt P00735); assay: thrombin inhibition, dose response, biochemical, fluorescence polarization, uHTS hits (AID 602369); format: functional
Aminopeptidase N = biological target: T1, Aminopeptidase N (Plasmodium falciparum FcB1/Columbia, UniProt O96935); assay: P. falciparum M1AAP inhibitors, biochemical, fluorogenic H-Leu-NHMec substrate, 1536-well (AID 1445); set-up: species or system Plasmodium falciparum 3D7, 3D7
T1 sequence (O96935 whole entry): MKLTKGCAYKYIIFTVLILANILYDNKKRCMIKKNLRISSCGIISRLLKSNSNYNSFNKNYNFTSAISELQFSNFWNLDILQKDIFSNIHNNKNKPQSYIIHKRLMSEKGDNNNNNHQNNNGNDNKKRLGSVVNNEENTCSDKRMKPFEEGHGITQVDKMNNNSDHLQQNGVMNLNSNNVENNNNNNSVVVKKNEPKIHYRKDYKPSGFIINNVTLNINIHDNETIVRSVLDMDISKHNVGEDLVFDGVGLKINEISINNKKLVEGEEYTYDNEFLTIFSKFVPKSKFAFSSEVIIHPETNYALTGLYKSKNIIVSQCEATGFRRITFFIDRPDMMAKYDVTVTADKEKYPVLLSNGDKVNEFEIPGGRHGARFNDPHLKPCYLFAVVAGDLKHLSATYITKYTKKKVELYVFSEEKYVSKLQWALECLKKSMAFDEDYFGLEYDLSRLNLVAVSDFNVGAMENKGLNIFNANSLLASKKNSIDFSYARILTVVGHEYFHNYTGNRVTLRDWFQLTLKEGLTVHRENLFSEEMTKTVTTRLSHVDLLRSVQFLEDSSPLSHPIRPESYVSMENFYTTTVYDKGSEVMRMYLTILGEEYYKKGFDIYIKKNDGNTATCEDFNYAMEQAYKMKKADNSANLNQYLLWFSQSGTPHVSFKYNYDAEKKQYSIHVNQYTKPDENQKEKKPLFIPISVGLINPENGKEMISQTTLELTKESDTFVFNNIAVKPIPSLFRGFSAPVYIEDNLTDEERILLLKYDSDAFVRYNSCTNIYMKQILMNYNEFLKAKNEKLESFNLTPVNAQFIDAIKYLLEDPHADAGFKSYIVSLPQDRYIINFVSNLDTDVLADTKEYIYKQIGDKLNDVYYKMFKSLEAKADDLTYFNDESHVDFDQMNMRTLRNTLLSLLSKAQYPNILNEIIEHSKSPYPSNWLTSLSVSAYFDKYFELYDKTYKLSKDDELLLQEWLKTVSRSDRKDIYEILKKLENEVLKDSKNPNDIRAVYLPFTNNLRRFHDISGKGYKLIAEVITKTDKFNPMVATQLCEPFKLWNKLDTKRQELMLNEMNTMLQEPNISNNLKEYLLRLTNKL

[4] = biological target: T2, Rac GTPase-activating protein 1 (Homo sapiens, UniProt Q9H0H5); assay: MgcRacGAP GTPase-activating activity inhibitors, confirmation, biochemical, ADP Hunter fluorescence, primary and confirmatory (AID 624330); format: functional
T2 sequence (Q9H0H5 whole entry): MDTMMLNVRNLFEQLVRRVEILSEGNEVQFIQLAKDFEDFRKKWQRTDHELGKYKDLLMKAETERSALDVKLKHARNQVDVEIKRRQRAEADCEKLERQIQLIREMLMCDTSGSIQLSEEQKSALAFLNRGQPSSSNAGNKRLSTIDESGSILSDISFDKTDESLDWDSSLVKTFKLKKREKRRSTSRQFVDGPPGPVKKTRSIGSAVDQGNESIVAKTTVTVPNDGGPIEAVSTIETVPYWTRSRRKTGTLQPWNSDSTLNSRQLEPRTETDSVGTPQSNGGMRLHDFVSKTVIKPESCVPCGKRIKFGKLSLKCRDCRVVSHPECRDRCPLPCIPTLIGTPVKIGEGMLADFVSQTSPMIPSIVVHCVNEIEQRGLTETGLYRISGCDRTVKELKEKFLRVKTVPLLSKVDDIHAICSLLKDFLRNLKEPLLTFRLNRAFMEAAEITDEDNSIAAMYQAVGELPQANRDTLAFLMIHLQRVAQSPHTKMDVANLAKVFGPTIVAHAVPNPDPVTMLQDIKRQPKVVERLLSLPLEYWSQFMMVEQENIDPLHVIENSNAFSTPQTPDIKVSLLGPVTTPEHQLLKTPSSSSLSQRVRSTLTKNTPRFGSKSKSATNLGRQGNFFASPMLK

LIM domain kinase 1 = LIM domain kinase 1 (Homo sapiens, UniProt P53667); assay: Navigating the Kinome. Panel member name: LIMK1; format: functional
[5] = biological target: Dual specificity protein kinase CLK4 (Homo sapiens, UniProt Q9HAZ1); format: functional
[6] = biological target: Casein kinase I isoform alpha (Homo sapiens, UniProt P48729); format: functional
[7] = biological target: Proto-oncogene tyrosine-protein kinase receptor Ret (Homo sapiens, UniProt P07949); format: functional;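 also: measured within a kinome-wide profiling panel, RET as the panel member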
[8] = biological target: Serine/threonine-protein kinase pim-1 (Homo sapiens, UniProt P11309); format: functional
[9] = biological target: cAMP-dependent protein kinase catalytic subunit PRKX (Homo sapiens, UniProt P51817); format: functional
[10] = biological target: Cyclin-dependent kinase 5 (Homo sapiens, UniProt Q00535); format: functional;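 also: CDK5 measured as one member of a kinase profiling panel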
[11] = biological target: 5'-AMP-activated protein kinase catalytic subunit alpha-1 (Homo sapiens, UniProt Q13131); format: functional
[12] = biological target: Death-associated protein kinase 3 (Homo sapiens, UniProt O43293); format: functional;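 also: measured as one member of a kinome-wide profiling panel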
[13] = biological target: Cyclin-dependent kinase 8 (Homo sapiens, UniProt P49336); assay: Navigating the Kinome. Panel member name: CDK8; format: functional
[14] = biological target: Leucine-rich repeat serine/threonine-protein kinase 2 (Homo sapiens, UniProt Q5S007); format: functional;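 also: value from a broad kinome-wide panel profiling study in which LRRK2 was one of the kinases tested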
Focal adhesion kinase 1 = Focal adhesion kinase 1 (Homo sapiens, UniProt Q05397); format: functional;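 also: measured as one member of a kinome panel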
Activin receptor type-1 = biological target: T3, Activin receptor type-1 (Homo sapiens, UniProt Q04771); assay: Navigating the Kinome. Panel member name: ACVR1; format: functional
T3 sequence (Q04771 whole entry): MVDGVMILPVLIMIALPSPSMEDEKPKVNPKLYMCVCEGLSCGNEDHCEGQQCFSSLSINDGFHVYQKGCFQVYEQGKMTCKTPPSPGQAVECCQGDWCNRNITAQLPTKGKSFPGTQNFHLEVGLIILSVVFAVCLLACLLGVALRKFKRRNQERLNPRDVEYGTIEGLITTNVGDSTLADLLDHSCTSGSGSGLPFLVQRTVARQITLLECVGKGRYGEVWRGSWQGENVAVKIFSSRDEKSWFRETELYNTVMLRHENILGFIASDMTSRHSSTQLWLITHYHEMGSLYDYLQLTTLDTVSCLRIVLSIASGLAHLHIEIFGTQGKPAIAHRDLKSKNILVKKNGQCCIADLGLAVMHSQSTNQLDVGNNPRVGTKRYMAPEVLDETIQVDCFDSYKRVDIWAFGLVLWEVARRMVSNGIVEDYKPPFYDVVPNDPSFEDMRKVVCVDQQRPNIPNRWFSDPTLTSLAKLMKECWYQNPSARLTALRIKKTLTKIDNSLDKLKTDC

[15] = biological target: Dual specificity tyrosine-phosphorylation-regulated kinase 1B (Homo sapiens, UniProt Q9Y463); assay: Navigating the Kinome. Panel member name: DYRK1B; format: functional
[16] = biological target: Serine/threonine-protein kinase Chk1 (Homo sapiens, UniProt O14757); format: functional;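 also: measured as one member of a kinome-wide kinase profiling panel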
[17] = biological target: Tyrosine-protein kinase receptor TYRO3 (Homo sapiens, UniProt Q06418); format: functional;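 also: TYRO3 value obtained as one member of a kinome-wide profiling panel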
[18] = biological target: Dual specificity tyrosine-phosphorylation-regulated kinase 1A (Homo sapiens, UniProt Q13627); format: functional;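 also: measured against DYRK1A as one member of a broad kinome profiling panel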
[19] = biological target: Leukocyte tyrosine kinase receptor (Homo sapiens, UniProt P29376); assay: Navigating the Kinome. Panel member name: LTK; format: functional
[20] = biological target: Botulinum neurotoxin type A (Clostridium botulinum (strain Hall / ATCC 3502 / NCTC 13319 / Type A), UniProt P0DPI1); assay: High-throughput multiplex microsphere dose response for inhibitors of toxin protease, specifically Botulinum neurotoxin light chain A protease, compounds from Cherry Pick 01.; format: functional; details: read-out: EC50_MICROM
[21] = biological target: DNA dC->dU-editing enzyme APOBEC-3A (Homo sapiens, UniProt P31941); assay: SAR analysis of small molecule inhibitors of APOBEC3A DNA Deaminase via a fluorescence-based single-stranded DNA deaminase assay.; format: functional; details: read-out: IC50_Mean
[22] = biological target: DNA dC->dU-editing enzyme APOBEC-3G (Homo sapiens, UniProt Q9HC16); assay: APOBEC3G deaminase inhibitors, SAR follow-up, biochemical, fluorescence, single-stranded DNA substrate (AID 602136); format: functional; details: read-out: IC50_Mean
[23] = biological target: Protein disulfide-isomerase (Homo sapiens, UniProt P07237); assay: PDI inhibitors, insulin aggregation turbidity, dose response, biochemical, absorbance, cherry-picked samples (AID 602350); format: functional
Trypsin = Trypsin (Sus scrofa, UniProt P00761); assay: porcine trypsin inhibitors, dose response, selectivity assay for Rce1 protease inhibitor project, biochemical, quenched peptide fluorescence, cherry-pick (AID 488789)
CAAX prenyl protease 2 [24] = biological target: T4, CAAX prenyl protease 2 (Saccharomyces cerevisiae S288c, UniProt Q03530); format: biochemical
T4 sequence (Q03530 whole entry): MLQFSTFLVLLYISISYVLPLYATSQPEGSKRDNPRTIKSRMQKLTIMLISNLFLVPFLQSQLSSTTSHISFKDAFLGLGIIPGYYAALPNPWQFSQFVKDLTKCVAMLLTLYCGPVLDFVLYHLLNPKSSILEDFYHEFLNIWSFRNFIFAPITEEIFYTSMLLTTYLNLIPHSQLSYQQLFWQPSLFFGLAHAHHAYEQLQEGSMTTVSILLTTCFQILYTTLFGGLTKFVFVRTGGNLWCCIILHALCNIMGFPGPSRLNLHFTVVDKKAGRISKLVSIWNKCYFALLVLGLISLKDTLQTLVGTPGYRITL

Cytochrome P450 1A2 = biological target: T5, Cytochrome P450 1A2 (Homo sapiens, UniProt P05177);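 also: PubChem cytochrome P450 panel assay, CYP1A2 panel member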
T5 sequence (P05177 whole entry): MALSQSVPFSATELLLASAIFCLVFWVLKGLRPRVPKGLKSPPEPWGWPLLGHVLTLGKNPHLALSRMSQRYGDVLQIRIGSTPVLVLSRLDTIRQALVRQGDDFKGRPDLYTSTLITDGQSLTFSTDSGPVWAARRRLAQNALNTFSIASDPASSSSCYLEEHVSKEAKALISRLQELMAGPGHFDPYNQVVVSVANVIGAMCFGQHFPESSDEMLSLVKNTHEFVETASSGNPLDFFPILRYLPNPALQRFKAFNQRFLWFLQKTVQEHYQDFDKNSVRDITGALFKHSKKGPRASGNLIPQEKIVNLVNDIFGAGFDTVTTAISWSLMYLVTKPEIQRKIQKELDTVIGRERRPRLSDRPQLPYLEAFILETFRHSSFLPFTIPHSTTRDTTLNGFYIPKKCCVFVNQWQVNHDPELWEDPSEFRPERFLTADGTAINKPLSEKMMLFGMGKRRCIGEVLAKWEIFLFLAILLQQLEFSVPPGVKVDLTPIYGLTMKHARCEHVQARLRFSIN

CAAX prenyl protease 2 [25] = biological target: T6, CAAX prenyl protease 2 (Homo sapiens, UniProt Q9Y256); assay: human Rce1 protease inhibitors, dose response, biochemical, plate reader, dry powder samples (AID 588848)
T6 sequence (Q9Y256 whole entry): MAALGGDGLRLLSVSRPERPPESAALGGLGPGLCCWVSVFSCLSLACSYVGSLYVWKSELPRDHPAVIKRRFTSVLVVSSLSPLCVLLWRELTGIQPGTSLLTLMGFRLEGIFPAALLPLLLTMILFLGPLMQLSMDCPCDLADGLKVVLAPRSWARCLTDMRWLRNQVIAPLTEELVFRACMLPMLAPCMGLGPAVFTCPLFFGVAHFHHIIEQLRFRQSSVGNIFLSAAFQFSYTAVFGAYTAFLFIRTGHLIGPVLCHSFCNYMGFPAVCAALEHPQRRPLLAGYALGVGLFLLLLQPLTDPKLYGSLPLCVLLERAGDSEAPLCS

CAAX prenyl protease 2 [26] = biological target: T4, CAAX prenyl protease 2; assay: yeast Rce1 CaaX protease inhibitors, dose response, biochemical, plate reader, dry powder retest (AID 588851)

Cyclin-dependent kinase 5, sequence (Q00535 whole entry): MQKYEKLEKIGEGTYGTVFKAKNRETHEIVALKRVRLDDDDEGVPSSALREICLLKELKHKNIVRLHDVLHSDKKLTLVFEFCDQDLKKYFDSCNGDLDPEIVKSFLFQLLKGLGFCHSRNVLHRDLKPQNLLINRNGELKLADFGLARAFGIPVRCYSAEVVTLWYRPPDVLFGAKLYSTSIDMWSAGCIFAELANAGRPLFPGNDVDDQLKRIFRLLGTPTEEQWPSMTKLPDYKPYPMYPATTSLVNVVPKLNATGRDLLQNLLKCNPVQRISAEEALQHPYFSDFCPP
Serine/threonine-protein kinase Chk1, sequence (O14757 whole entry): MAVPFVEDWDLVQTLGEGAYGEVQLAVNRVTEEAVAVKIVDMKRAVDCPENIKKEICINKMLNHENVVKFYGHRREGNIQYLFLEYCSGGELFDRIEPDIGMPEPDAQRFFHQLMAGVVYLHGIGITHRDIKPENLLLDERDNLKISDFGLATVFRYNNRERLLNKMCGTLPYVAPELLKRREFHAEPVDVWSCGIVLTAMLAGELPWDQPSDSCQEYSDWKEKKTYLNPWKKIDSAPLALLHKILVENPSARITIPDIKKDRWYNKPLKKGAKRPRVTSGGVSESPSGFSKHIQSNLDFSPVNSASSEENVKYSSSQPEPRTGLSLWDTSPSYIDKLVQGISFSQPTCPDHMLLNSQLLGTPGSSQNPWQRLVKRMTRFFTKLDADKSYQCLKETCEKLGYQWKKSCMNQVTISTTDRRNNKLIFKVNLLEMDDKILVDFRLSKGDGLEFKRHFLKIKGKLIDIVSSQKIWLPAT
Botulinum neurotoxin type A, sequence (P0DPI1 2-448 limits assumed): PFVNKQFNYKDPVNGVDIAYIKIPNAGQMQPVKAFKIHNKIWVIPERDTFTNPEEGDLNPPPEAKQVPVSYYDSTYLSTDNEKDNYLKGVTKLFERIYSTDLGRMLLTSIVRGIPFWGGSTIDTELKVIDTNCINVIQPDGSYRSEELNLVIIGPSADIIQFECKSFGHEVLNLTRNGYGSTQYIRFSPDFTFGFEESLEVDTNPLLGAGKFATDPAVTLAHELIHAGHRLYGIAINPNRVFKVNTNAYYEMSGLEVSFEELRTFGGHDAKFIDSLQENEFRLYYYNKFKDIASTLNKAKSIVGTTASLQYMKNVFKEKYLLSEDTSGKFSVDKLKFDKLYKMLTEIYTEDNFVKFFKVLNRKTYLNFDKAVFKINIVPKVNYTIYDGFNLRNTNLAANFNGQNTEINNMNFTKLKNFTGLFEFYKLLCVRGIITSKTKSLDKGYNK
Tyrosine-protein kinase receptor TYRO3, sequence (Q06418 whole entry): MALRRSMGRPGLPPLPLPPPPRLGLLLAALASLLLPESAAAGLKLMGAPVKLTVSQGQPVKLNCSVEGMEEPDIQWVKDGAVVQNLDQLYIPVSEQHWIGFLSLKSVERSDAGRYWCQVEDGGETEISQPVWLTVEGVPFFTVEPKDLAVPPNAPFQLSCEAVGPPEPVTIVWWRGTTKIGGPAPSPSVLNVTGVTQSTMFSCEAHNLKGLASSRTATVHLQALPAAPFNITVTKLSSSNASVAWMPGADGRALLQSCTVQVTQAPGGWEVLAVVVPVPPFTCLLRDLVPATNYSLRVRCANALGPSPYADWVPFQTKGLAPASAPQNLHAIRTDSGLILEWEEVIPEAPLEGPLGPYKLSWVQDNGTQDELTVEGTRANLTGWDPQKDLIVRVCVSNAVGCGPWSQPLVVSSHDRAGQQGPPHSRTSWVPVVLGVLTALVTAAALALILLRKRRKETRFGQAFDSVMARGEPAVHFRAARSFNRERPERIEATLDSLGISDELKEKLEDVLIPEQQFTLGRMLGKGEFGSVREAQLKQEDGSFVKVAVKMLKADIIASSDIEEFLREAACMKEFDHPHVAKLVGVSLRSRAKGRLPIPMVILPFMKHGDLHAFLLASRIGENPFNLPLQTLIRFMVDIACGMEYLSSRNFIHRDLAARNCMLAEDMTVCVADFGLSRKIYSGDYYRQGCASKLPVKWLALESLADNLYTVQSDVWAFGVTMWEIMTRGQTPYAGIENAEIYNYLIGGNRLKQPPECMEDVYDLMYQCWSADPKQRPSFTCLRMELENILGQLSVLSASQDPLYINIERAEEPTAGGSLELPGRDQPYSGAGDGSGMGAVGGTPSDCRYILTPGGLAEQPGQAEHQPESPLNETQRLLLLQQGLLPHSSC
LIM domain kinase 1, sequence (P53667 whole entry, the tested form may be a part): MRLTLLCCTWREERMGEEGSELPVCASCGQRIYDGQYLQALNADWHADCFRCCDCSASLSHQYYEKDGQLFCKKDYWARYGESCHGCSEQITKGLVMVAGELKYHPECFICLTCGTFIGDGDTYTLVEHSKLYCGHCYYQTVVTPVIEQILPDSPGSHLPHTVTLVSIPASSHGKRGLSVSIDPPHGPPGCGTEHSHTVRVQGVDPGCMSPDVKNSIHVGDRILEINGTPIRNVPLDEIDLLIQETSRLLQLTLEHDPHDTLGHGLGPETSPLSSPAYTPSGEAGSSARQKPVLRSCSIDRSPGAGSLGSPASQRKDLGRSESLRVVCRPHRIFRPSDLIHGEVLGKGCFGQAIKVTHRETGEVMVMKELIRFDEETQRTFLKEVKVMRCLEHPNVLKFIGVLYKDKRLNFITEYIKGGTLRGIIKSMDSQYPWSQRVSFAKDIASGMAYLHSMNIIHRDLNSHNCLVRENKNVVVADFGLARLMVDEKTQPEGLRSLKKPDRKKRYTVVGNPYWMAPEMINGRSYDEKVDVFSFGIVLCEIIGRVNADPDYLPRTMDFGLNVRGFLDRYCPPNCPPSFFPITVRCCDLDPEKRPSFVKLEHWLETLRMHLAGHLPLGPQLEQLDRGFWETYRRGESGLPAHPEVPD
Leukocyte tyrosine kinase receptor, sequence (P29376 whole entry): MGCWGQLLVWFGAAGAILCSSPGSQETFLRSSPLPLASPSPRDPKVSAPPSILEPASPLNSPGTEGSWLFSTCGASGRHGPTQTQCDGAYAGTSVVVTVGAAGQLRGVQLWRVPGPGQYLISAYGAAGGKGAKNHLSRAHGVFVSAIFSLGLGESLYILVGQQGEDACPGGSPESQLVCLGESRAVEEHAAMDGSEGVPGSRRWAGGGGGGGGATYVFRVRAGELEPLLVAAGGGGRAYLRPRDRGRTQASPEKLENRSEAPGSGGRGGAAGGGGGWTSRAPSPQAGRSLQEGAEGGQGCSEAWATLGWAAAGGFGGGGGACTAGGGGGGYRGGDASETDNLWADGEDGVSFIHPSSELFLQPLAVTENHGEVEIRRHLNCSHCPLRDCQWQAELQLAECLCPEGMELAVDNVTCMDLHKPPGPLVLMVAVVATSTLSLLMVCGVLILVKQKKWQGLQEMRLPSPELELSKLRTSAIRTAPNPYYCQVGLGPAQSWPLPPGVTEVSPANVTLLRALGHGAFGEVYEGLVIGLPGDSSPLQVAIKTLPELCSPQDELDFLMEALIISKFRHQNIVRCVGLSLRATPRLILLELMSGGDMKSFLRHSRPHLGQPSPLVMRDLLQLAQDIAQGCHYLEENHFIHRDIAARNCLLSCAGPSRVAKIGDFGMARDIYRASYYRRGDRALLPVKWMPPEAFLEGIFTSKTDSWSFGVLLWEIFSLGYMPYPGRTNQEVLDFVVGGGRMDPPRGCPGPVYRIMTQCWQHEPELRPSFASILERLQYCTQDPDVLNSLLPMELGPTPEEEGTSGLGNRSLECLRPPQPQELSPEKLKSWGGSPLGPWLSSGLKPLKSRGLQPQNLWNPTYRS
DNA dC->dU-editing enzyme APOBEC-3A, sequence (P31941 whole entry): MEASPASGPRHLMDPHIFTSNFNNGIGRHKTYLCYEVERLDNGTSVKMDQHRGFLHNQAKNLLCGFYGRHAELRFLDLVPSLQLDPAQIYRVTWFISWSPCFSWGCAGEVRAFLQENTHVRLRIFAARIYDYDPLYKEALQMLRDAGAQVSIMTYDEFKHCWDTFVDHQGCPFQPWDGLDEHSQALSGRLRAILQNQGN
Death-associated protein kinase 3, sequence (O43293 whole entry): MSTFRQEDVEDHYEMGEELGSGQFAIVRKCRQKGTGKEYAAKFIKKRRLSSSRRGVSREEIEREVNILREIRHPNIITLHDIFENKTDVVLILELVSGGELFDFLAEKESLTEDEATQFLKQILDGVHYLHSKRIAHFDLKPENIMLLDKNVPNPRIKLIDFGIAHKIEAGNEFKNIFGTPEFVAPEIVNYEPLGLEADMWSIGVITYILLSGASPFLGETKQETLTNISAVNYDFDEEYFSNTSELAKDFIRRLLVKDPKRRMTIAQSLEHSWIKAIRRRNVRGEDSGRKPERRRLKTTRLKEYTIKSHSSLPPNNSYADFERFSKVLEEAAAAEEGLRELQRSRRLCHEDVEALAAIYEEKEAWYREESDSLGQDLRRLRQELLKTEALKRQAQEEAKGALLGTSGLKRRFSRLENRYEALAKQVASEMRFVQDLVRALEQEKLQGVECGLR
Protein disulfide-isomerase, sequence (P07237 whole entry): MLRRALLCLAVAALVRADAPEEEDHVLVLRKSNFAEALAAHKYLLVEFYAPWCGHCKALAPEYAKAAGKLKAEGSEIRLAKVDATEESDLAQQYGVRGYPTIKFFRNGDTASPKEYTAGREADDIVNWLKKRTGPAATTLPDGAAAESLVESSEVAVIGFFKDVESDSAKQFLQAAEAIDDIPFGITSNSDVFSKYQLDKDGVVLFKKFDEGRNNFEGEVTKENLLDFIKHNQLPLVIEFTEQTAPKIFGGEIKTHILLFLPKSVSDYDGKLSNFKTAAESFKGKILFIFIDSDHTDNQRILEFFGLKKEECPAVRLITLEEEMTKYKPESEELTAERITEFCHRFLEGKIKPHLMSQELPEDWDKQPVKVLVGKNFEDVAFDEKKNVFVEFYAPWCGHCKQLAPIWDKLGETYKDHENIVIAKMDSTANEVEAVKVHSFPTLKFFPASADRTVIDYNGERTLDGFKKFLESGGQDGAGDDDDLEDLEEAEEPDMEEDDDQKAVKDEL

## CCOc1cc(/C=C2\C(=N)N3N=C(S(=O)(=O)CC)SC3=NC2=O)ccc1O
[1]
  IC50: > 100 µM (inactive)
[2]
  AC50: 24.9 µM (active)
[3]
  IC50: 28.6 µM (active)
Prothrombin
  IC50: 34.8 µM (active)
Aminopeptidase N
  IC50: 55.7 µM (active)
[4]
  IC50: 79.6 µM (active)

## O=C1NS(=O)(=O)c2ccc(Cl)cc21
LIM domain kinase 1
  Ki: 25.1 µM (active)
[5]
  Ki: 63.1 µM (active)
[6]
  Ki: 100 µM (active)
[7]
  Ki: 100 µM (active)
[8]
  Ki: 79.4 µM (active)
[9]
  Ki: 63.1 µM (active)
[10]
  Ki: 50.1 µM (active)
[11]
  Ki: 50.1 µM (active)
[12]
  Ki: 31.6 µM (active)
[13]
  Ki: 63.1 µM (active)
[14]
  Ki: 50.1 µM (active)
Focal adhesion kinase 1
  Ki: 79.4 µM (active)
Activin receptor type-1
  Ki: 79.4 µM (active)
[15]
  Ki: 20 µM (active)
[16]
  Ki: 79.4 µM (active)
[17]
  Ki: 20 µM (active)
[18]
  Ki: 20 µM (active)
[19]
  Ki: 31.6 µM (active)

## COc1ccc(OC)c(-c2nc3cc4ccccc4cc3nc2-c2ccccc2)c1
[20]
  EC50: 17.9 µM (active)

## Cc1cc(C(=O)N2CCCC(NS(C)(=O)=O)C2)c(C)n1Cc1ccccc1 (stereo not drawn)
[21]
  IC50: > 99 µM (inactive)
[22]
  IC50: > 99 µM (inactive)

## COc1ccc(C(=O)Nc2ccccc2C(=O)NCc2ccco2)cc1
[23]
  AC50: 0.819 µM (active)

## CCOc1cc(S(=O)(=O)N(Cc2ccccc2)Cc2ccccc2)c(OCC)cc1-n1cnnn1
Trypsin
  AC50: 34 µM (active)
CAAX prenyl protease 2 [24]
  AC50: 1.45 µM (active)
Cytochrome P450 1A2
  AC50: 15.8 µM (inconclusive)
CAAX prenyl protease 2 [25]
  AC50: 35.6 µM (active)
CAAX prenyl protease 2 [26]
  AC50: 16.8 µM (active)
